“And” between values parts separate entries of the source, which are not always exact repeats. Equal values may be shown once.
Experiments:
[1] = system: T1, UGT enzymes of human liver microsomes; experiment: Inhibition of 7-HFC glucuronidation in human liver microsomes; type: biochemical; conditions: for % of control metabolism (SD, n = 3), 7-HFC glucuronidation: 7-HFC 50 μM, human liver microsomes 100 μg/ml, 15 min
T1 construct: percentage of control metabolism, 7-HFC glucuronidation; percentage of control metabolism, 7-HFC glucuronidation

UGT1A3 = target: T2, UGT1A3 (Homo sapiens, UniProt P35503); experiment: in vitro
T2 sequence (P35503 29-534): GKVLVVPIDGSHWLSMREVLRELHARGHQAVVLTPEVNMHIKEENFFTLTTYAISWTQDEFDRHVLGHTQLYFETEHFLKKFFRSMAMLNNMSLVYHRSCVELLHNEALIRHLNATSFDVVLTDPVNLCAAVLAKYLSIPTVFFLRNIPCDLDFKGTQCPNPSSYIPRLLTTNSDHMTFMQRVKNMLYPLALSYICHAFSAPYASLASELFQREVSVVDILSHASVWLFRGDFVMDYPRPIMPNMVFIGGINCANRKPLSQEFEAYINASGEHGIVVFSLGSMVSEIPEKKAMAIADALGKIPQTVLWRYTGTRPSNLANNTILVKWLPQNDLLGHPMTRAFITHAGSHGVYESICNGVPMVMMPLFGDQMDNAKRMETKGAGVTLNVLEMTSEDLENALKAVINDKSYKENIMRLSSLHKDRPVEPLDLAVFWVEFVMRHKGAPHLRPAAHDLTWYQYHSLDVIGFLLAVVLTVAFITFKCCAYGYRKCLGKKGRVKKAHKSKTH
Protocol: (§1) Compounds were eluted using a binary solvent gradient system. Solvent A was water brought to pH 8 with NH4OH. Solvent B was methanol. Solvent flow rate was 1 ml/min and the column temperature was maintained at 50° C. Detection was at 280 nm. […] The system was then returned to the initial conditions and equilibrated for 3 min.

UGT1A9 = target: T3, UGT1A9 (Homo sapiens, UniProt O60656); experiment: in vitro
T3 sequence (O60656 26-530): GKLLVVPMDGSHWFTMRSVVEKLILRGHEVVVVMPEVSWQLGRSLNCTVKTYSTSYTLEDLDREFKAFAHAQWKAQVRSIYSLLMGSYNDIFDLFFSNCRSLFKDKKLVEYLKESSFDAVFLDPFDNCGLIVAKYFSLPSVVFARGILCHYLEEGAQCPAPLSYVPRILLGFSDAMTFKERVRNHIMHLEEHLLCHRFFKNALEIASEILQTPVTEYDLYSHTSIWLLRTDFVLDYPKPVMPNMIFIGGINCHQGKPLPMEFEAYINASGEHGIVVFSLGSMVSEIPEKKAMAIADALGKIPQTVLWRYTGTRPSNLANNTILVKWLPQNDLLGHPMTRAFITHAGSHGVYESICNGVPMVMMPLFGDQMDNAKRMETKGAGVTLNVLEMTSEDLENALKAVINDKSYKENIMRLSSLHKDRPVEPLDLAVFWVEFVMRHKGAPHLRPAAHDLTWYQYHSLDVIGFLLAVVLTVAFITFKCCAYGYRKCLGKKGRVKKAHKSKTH
Protocol: as §1

[2] = system: T4, UGT enzymes of human liver microsomes; experiment: Inhibition of labetalol glucuronidation (LG1, LG2) in human liver microsomes; type: biochemical; conditions: labetalol 50 μM
T4 construct: residual metabolism (percentage of control), labetalol LG1; other: labetalol 50 μM; residual metabolism (percentage of control), labetalol LG1; residual metabolism (percentage of control), labetalol LG2; inhi
Protocol: Supernatants were analyzed by HPLC with fluorescence detection.
Compounds were eluted using a binary solvent gradient system where solvent A was 5:5:90 tetrahydrofuran-acetonitrile-(NH4)2HPO4 50 mM, while solvent B was 25:25:50 tetrahydrofuran-acetonitrile-(NH4)2HPO4 50 mM. Solvent flow rate was 0.75 ml/min and the column temperature was ambient. […] Labetalol and metabolites were measured by fluorescence detection using a Jasco model FP920 detector. Excitation and emission wavelengths were 370 nm 418 nm respectively. Retention times for salicylamide internal standard and labetalol were 6.6 min and 15.0 min respectively.

[3] = system: UGT enzymes of pooled human jejunum microsomes; experiment: Inhibition of 2ME2 glucuronidation (MG1) in pooled human jejunum microsomes; type: biochemical; conditions: jejunum HJ61, 2ME2 50 μM
From the text: Compounds were eluted using a binary solvent gradient system where solvent A was dilute phosphoric acid (pH 3) and solvent B was 80:20 acetonitrile-methanol. […] Detection was at 280 nm.

UGT1A8 = target: T5, UGT1A8 (Homo sapiens, UniProt Q9HAW9); experiment: in vitro; conditions: pH 7.5, % of control metabolism
T5 sequence (Q9HAW9 26-530): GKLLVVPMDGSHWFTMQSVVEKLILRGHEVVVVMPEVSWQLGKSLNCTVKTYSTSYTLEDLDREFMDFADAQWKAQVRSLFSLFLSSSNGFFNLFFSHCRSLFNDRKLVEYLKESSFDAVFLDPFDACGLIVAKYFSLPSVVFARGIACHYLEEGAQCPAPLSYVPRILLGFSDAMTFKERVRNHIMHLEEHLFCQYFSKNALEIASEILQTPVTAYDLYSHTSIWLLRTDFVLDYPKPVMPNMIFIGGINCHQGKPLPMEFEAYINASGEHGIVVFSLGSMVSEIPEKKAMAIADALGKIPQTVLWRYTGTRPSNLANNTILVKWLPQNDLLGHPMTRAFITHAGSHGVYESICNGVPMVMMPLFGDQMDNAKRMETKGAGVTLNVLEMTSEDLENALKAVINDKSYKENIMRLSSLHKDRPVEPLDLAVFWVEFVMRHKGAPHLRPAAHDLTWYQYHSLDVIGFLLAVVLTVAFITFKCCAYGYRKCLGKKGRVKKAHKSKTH
Protocol: as §1

[4] = pH 7.5, % of control metabolism, raloxifene G1
[5] = pH 7.5, % of control metabolism, raloxifene G2
[6] = pH 7.5, Inhibition of raloxifene glucuronidation, G1, UGT1A3
[7] = pH 7.5, Inhibition of raloxifene glucuronidation, G2, UGT1A3
[8] = pH 7.5, Inhibition of raloxifene glucuronidation, UGT1A9, first line per inhibitor (G1)
[9] = pH 7.5, Inhibition of raloxifene glucuronidation, UGT1A9, second line per inhibitor (G2)

| % of control metabolism (SD, n = 3), 7-HFC glucuronidation ([1]; inhibitor 500 μM) | activity at 15 min, 50 µM (UGT1A3; [4]) | activity at 15 min, 50 µM (UGT1A3; [5]) | activity at 15 min, 50 µM (UGT1A3; [6]) | activity at 15 min, 50 µM (UGT1A3; [7]) | activity at 15 min, 50 µM (UGT1A9; [4]) | activity at 15 min, 50 µM (UGT1A9; [5]) | percentage of control metabolism, 7-HFC glucuronidation ([1]; inhibitor 100 μM) | % of control metabolism (SD, n = 3), 7-HFC glucuronidation ([1]; inhibitor 100 μM) | percentage of control metabolism, 7-HFC glucuronidation ([1]; inhibitor 200 μM) | % of control metabolism (SD, n = 3), 7-HFC glucuronidation ([1]; inhibitor 200 μM) | percentage of control metabolism, 7-HFC glucuronidation ([1]; inhibitor 500 μM) | residual metabolism (percentage of control), labetalol LG1 ([2]; inhibitor 50 μM) | SMILES | residual metabolism (percentage of control), labetalol LG1 ([2]; inhibitor 100 μM) | residual metabolism (percentage of control), labetalol LG2 ([2]; inhibitor 100 μM) | residual metabolism (% of control), 2ME2 MG1 ([3]; inhibitor 100 μM) | activity at 15 min, 50 µM (UGT1A8; raloxifene G1) | activity at 15 min, 50 µM (UGT1A8; raloxifene G2) | residual metabolism (% of control), 2ME2 MG1 ([3]; inhibitor 25 μM) | residual metabolism (% of control), 2ME2 MG1 ([3]; inhibitor 50 μM) | also measured |
| --- | --- | --- | --- | --- | --- | --- | --- | --- | --- | --- | --- | --- | --- | --- | --- | --- | --- | --- | --- | --- | --- |
| 10 (1) % | 57% | 42% | 57% | 42% | 48% | 45% | 67 (1) % | 67 (1) % | 55 (3) % | 55 (3) % | 10 (1) % | – | O=C(O[C@@H]1Cc2c(O)cc(O)cc2O[C@@H]1c1ccc(O)c(O)c1)c1cc(O)c(O)c(O)c1 [Epicatechin gallate] | 74 (1) % | 86 (2) % | 47 (2) % | 71% | 53% | 76 (4) % | 63 (1) % | – |
| 95 (2) % | – | – | – | – | – | – | – | – | – | – | – | – | CC(CCc1ccccc1)NCC(O)c1ccc(O)c(C(N)=O)c1 (centres unmarked) [Labetalol, labetalol] | – | – | – | – | – | – | – | – |
| 63 (0), % and 59 (1) % | 55% | 56% | 55% | 56% | 48% | 51% | – | – | – | 71 (1) % | – | – | CCCOC(=O)c1cc(O)c(O)c(O)c1 [Propyl gallate] | – | – | – | – | – | – | – | activity at 15 min, 25 µM (UGT1A3; [6]): 72%; activity at 15 min, 25 µM (UGT1A3; [7]): 79% |

Second part, the compound before the results:

| SMILES | % of control metabolism (SD, n = 3), 7-HFC glucuronidation ([1]; inhibitor 500 μM) | activity at 15 min, 50 µM (UGT1A3; [4]) | activity at 15 min, 50 µM (UGT1A3; [5]) | activity at 15 min, 50 µM (UGT1A3; [6]) | activity at 15 min, 50 µM (UGT1A3; [7]) | activity at 15 min, 50 µM (UGT1A9; [4]) | activity at 15 min, 50 µM (UGT1A9; [5]) | percentage of control metabolism, 7-HFC glucuronidation ([1]; inhibitor 100 μM) | % of control metabolism (SD, n = 3), 7-HFC glucuronidation ([1]; inhibitor 100 μM) | percentage of control metabolism, 7-HFC glucuronidation ([1]; inhibitor 200 μM) | % of control metabolism (SD, n = 3), 7-HFC glucuronidation ([1]; inhibitor 200 μM) | percentage of control metabolism, 7-HFC glucuronidation ([1]; inhibitor 500 μM) | residual metabolism (percentage of control), labetalol LG1 ([2]; inhibitor 50 μM) | residual metabolism (percentage of control), labetalol LG1 ([2]; inhibitor 100 μM) | residual metabolism (percentage of control), labetalol LG2 ([2]; inhibitor 100 μM) | residual metabolism (% of control), 2ME2 MG1 ([3]; inhibitor 100 μM) | activity at 15 min, 50 µM (UGT1A8; raloxifene G1) | activity at 15 min, 50 µM (UGT1A8; raloxifene G2) | residual metabolism (% of control), 2ME2 MG1 ([3]; inhibitor 25 μM) | residual metabolism (% of control), 2ME2 MG1 ([3]; inhibitor 50 μM) | also measured |
| --- | --- | --- | --- | --- | --- | --- | --- | --- | --- | --- | --- | --- | --- | --- | --- | --- | --- | --- | --- | --- | --- |
| C=CCc1ccc(O)c(OC)c1 [Eugenol] | 63 (1) % | 89% | 85% | 89% | 85% | 32% | 29% | – | – | – | – | – | – | 82 (2) % | 75 (4) % | 104 (4) % | 107% | 103% | – | – | activity at 15 min, 25 µM (UGT1A9; [4]): 56%; activity at 15 min, 25 µM (UGT1A9; [5]): 51%; activity at 15 min, 25 µM (UGT1A9; [8]): 56%; activity at 15 min, 50 µM (UGT1A9; [8]): 32%; activity at 15 min, 25 µM (UGT1A9; [9]): 51%; activity at 15 min, 50 µM (UGT1A9; [9]): 29% |
| O=C(O[C@@H]1Cc2c(O)cc(O)cc2O[C@@H]1c1cc(O)c(O)c(O)c1)c1cc(O)c(O)c(O)c1 [Epigallocatechin gallate] | 5 (1) % | – | – | – | – | – | – | 67 (1) % | 67 (1) % | 37 (2) % | 37 (2) % | 5 (1) % | – | 55 (2) % | 52 (5) % | 35 (2) % | – | – | 66 (2) % | 50 (3) % | – |
| O=C(O)c1cc(-c2ccc(F)cc2F)ccc1O [Diflunisal, reference compound] | 37 (1), % and 38 (0) % | 83% | 81% | 83% | 81% | 50% | 43% | 77 (2) % | 77 (2) % | 65 (3) % | 65 (3) % | 37 (1) % and 38 (0) % | 92 (4) % | 80 (6) % and 86 (5) % | 70 (4) % and 73 (2) % | 82 (2) % | 81% | 126% | – | 91 (1) % | residual metabolism (percentage of control), labetalol LG2 ([2]; inhibitor 50 μM): 80 (3) % |
| O=c1c(O)c(-c2ccc(O)c(O)c2)oc2cc(O)cc(O)c12 [Quercetin] | 52 (1), % and 62 (1) % | – | – | – | – | – | – | 58 (1) % | 58 (1) % | 53 (1) % | 53 (1) % | 52 (1) % | 78 (4) % | 56 (8) % and 49 (7) % | 47 (6) % and 43 (9) % | 19 (1) % | 95% | 81% | 56 (2) % | 44 (2) % | residual metabolism (percentage of control), labetalol LG2 ([2]; inhibitor 50 μM): 70 (3) % |
| CC/C(=C(/CC)c1ccc(O)cc1)c1ccc(O)cc1 [Diethylstilbestrol, reference compound] | 0.1 (0) % | – | – | – | – | – | – | 11 (1) % | 11 (1) % | 1 (0) % | 1 (0) % | 0.1 (0) % | 23 (3) % | 1 (3) % and 5 (3) % | 11 (1) % and 8 (1) % | – | – | – | – | – | percentage of control metabolism, 7-HFC glucuronidation ([1]; inhibitor 25 μM): 57 (1) %; % of control metabolism (SD, n = 3), 7-HFC glucuronidation ([1]; inhibitor 25 μM): 57 (1) %; percentage of control metabolism, 7-HFC glucuronidation ([1]; inhibitor 50 μM): 34 (2) %; % of control metabolism (SD, n = 3), 7-HFC glucuronidation ([1]; inhibitor 50 μM): 34 (2) %; residual metabolism (percentage of control), labetalol LG2 ([2]; inhibitor 50 μM): 29 (8) %; residual metabolism (% of control), 2ME2 MG1 ([3]; inhibitor 1 μM): 93 (4) %; residual metabolism (% of control), 2ME2 MG1 ([3]; inhibitor 10 μM): 75 (1) % |
